Experimental data published in US9655887B2, “Pharmaceutical composition and the use thereof, and application regime of said pharmaceutical composition for on-demand contraception” (BAYER PHARMA AKTIENGESELLSCHAFT, priority 2013, dated 2017).

Biological target: EP2 subtype of the human PGE2 receptor (hEP2 receptor) (Homo sapiens, UniProt P43116)
Assay: cAMP antagonism test, human prostaglandin E2 (subtype EP2) receptor signal
Format: cell-based
Summary of the method: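 Cells (625000 cells/ml, mixed with cAMP-d2) were preincubated 20 min at RT with compound ([…]). They were then stimulated 60 min at RT with a 3× PGE2 solution (1.5 nM) in PBS-IBMX and lysed for 20 min. cAMP was read by HTRF as the 665/620 nm ratio ×10000, with antagonism seen as a rise in FRET signal.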

Sequence of EP2 subtype of the human PGE2 receptor (hEP2 receptor) (P43116 whole entry): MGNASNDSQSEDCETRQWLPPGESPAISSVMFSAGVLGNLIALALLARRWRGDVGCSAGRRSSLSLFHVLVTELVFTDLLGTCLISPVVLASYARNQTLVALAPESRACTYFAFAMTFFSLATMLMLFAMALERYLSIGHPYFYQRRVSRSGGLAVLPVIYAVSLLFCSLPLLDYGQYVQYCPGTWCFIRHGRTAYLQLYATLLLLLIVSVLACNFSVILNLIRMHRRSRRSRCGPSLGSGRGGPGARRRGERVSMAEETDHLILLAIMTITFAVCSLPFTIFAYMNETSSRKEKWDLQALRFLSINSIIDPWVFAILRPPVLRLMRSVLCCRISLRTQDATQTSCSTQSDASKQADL

| IC50 | Structure (SMILES) |
| --- | --- |
| > 50 nM | COCCNC(=O)c1ccc2nn(CC3CCN(C(=O)c4ccc(-c5cnc(C(F)(F)F)nc5)cc4)CC3)cc2c1C [Example E195, N-(2-methoxyethyl)-4-methyl-2-[(1-{4-[2-(trifluoromethyl)pyrimidin-5-yl]benzoyl}-piperidin-4-yl)methyl]-2H-indazole-5-carboxamide] |
| > 50 nM | COCCNC(=O)c1ccc2nn(CC3CCN(C(=O)c4ccc(-c5ccc(OC)cc5)cc4)CC3)cc2c1C [Example E166, 2-({1-[(4′-methoxybiphenyl-4-yl)carbonyl]piperidin-4-yl}methyl)-N-(2-methoxyethyl)-4-methyl-2H-indazole-5-carboxamide] |
| > 50 nM | COCCNC(=O)c1ccc2nn(CC3CCN(C(=O)c4ccc(Oc5ccccc5)cc4)CC3)cc2c1C [Example E18, N-(2-methoxyethyl)-4-methyl-2-{[1-(4-phenoxybenzoyl)piperidin-4-yl]methyl}-2H-indazole-5-carboxamide] |
| > 50 nM | COCCNC(=O)c1ccc2nn(CC3CCN(C(=O)c4ccc(-c5cncc(C(F)(F)F)c5)cc4)CC3)cc2c1C [Example E200, N-(2-methoxyethyl)-4-methyl-2-[(1-{4-[5-(trifluoromethyl)pyridin-3-yl]benzoyl}-piperidin-4-yl)methyl]-2H-indazole-5-carboxamide] |
| > 50 nM | Cc1c(C(=O)NCCOCC(F)(F)F)ccc2nn(CC3CCN(C(=O)c4ccc(Cl)cc4)CC3)cc12 [Example E65, 2-{[1-(4-chlorobenzoyl)piperidin-4-yl]methyl}-4-methyl-N-[2-(2,2,2-trifluoroethoxy)-ethyl]-2H-indazole-5-carboxamide] |
| > 50 nM | COCCNC(=O)c1ccc2nn(CC3CCN(C(=O)c4ccc(Br)cc4F)CC3)cc2c1C [Example E8, 2-{[1-(4-bromo-2-fluorobenzoyl)piperidin-4-yl]methyl}-N-(2-methoxyethyl)-4-methyl-2H-indazole-5-carboxamide] |
| > 50 nM | COCCNC(=O)c1ccc2nn(CC3CCN(C(=O)c4ccc(OC(F)F)cc4F)CC3)cc2c1C [Example E38, 2-({1-[4-(difluoromethoxy)-2-fluorobenzoyl]piperidin-4-yl}methyl)-N-(2-methoxy-ethyl)-4-methyl-2H-indazole-5-carboxamide] |
| > 50 nM | Cc1c(C(=O)NCC(F)(F)F)ccc2nn(CC3CCN(C(=O)c4ccc(Oc5ccc(C(F)(F)F)nc5)cc4)CC3)cc12 [Example E128, 4-methyl-N-(2,2,2-trifluoroethyl)-2-{[1-(4-{[6-(trifluoromethyl)pyridin-3-yl]oxy}-benzoyl)piperidin-4-yl]methyl}-2H-indazole-5-carboxamide] |
| > 50 nM | COCCNC(=O)c1ccc2nn(CC3CCN(C(=O)c4ccc(-c5ccc(C)c(C)c5)cc4F)CC3)cc2c1C [Example E176, 2-({1-[(3-fluoro-3′,4′-dimethylbiphenyl-4-yl)carbonyl]piperidin-4-yl}methyl)-N-(2-methoxyethyl)-4-methyl-2H-indazole-5-carboxamide] |
| > 50 nM | COCCNC(=O)c1ccc2nn(CC3CCN(C(=O)c4ccc(Oc5ccccc5F)cc4)CC3)cc2c1C [Example E179, 2-({1-[4-(2-fluorophenoxy)benzoyl]piperidin-4-yl}methyl)-N-(2-methoxyethyl)-4-methyl-2H-indazole-5-carboxamide] |
| > 50 nM | COCCNC(=O)c1ccc2nn(CC3CN(C(=O)c4ccc(OC(F)(F)F)cc4)C3)cc2c1C [Example E89, N-(2-methoxyethyl)-4-methyl-2-({1-[4-(trifluoromethoxy)benzoyl]azetidin-3-yl}-methyl)-2H-indazole-5-carboxamide] |
| > 50 nM | COCCNC(=O)c1ccc2nn(CC3CCN(C(=O)c4ccc(C)cc4)CC3)cc2c1C [Example E12, N-(2-methoxyethyl)-4-methyl-2-{[1-(4-methylbenzoyl)piperidin-4-yl]methyl}-2H-indazole-5-carboxamide] |
| > 50 nM | COCCNC(=O)c1ccc2nn(CC3CCN(C(=O)c4ccc(F)cc4)CC3)cc2c1C [Example E21, 2-{[1-(4-fluorobenzoyl)piperidin-4-yl]methyl}-N-(2-methoxyethyl)-4-methyl-2H-indazole-5-carboxamide] |
| > 50 nM | Cc1c(C(=O)NCCOCC2CC2)ccc2nn(CC3CN(C(=O)c4ccc(-c5ccc(F)cc5)cc4)C3)cc12 [Example E107, N-[2-(cyclopropylmethoxy)ethyl]-2-({1-[(4′-fluorobiphenyl-4-yl)carbonyl]azetidin-3-yl}methyl)-4-methyl-2H-indazole-5-carboxamide] |
| > 50 nM | COCCNC(=O)c1ccc2nn(CC3CCN(C(=O)c4ccc(OC)cc4F)CC3)cc2c1C [Example E7, 2-{[1-(2-fluoro-4-methoxybenzoyl)piperidin-4-yl]methyl}-N-(2-methoxyethyl)-4-methyl-2H-indazole-5-carboxamide] |
| > 50 nM | Cc1c(C(=O)NCCOCC(F)(F)F)ccc2nn(CC3CN(C(=O)c4ccc(Oc5ccc(C(F)(F)F)cc5)cc4)C3)cc12 [Example E113, 4-methyl-N-[2-(2,2,2-trifluoroethoxy)ethyl]-2-[(1-{4-[4-(trifluoromethyl)phenoxy]-benzoyl}azetidin-3-yl)methyl]-2H-indazole-5-carboxamide] |
| > 50 nM | COCCNC(=O)c1ccc2nn(CC3CCN(C(=O)c4ccc(-c5ccc(F)cc5Cl)cc4)CC3)cc2c1C [Example E197, 2-({1-[(2′-chloro-4′-fluorobiphenyl-4-yl)carbonyl]piperidin-4-yl}methyl)-N-(2-methoxy-ethyl)-4-methyl-2H-indazole-5-carboxamide] |
| > 50 nM | COCCNC(=O)c1ccc2nn(CC3CCN(C(=O)c4ccc(OC(C)C)cc4F)CC3)cc2c1C [Example E175, 2-{[1-(2-fluoro-4-isopropoxybenzoyl)piperidin-4-yl]methyl}-N-(2-methoxyethyl)-4-methyl-2H-indazole-5-carboxamide] |
| > 50 nM | COCCNC(=O)c1ccc2nn(CC3CCN(C(=O)c4ccc(-c5cccc(OC)n5)cc4)CC3)cc2c1C [Example E191, N-(2-methoxyethyl)-2-({1-[4-(6-methoxypyridin-2-yl)benzoyl]piperidin-4-yl}methyl)-4-methyl-2H-indazole-5-carboxamide] |
| > 50 nM | Cc1c(C(=O)NCCOCC(F)(F)F)ccc2nn(CC3CCN(C(=O)c4ccc(-c5ccc(F)cc5)cc4)CC3)cc12 [Example E69, 2-({1-[(4′-fluorobiphenyl-4-yl)carbonyl]piperidin-4-yl}methyl)-4-methyl-N-[2-(2,2,2-trifluoroethoxy)ethyl]-2H-indazole-5-carboxamide] |
| > 50 nM | Cc1c(C(=O)NCCOC(F)(F)F)ccc2nn(CC3CCN(C(=O)c4ccc(-c5ccc(F)cc5)cc4)CC3)cc12 [Example E79, 2-({1-[(4′-fluorobiphenyl-4-yl)carbonyl]piperidin-4-yl}methyl)-4-methyl-N-[2-(trifluoromethoxy)ethyl]-2H-indazole-5-carboxamide] |
| > 50 nM | COCCNC(=O)c1ccc2nn(CC3CCN(C(=O)c4ccc(Oc5cccnc5)cc4)CC3)cc2c1C [Example E160, N-(2-methoxyethyl)-4-methyl-2-({1-[4-(pyridin-3-yloxy)benzoyl]piperidin-4-yl}methyl)-2H-indazole-5-carboxamide] |
